Experimental data from PMC4687028 (Journal of medicinal chemistry, 2015).

Experiments:
Recombinant CYP2A6 = target: T1, Recombinant CYP2A6 (Homo sapiens, UniProt P11509); test: Inhibition of recombinant CYP2A6; type: biochemical
T1 sequence (P11509 1-494): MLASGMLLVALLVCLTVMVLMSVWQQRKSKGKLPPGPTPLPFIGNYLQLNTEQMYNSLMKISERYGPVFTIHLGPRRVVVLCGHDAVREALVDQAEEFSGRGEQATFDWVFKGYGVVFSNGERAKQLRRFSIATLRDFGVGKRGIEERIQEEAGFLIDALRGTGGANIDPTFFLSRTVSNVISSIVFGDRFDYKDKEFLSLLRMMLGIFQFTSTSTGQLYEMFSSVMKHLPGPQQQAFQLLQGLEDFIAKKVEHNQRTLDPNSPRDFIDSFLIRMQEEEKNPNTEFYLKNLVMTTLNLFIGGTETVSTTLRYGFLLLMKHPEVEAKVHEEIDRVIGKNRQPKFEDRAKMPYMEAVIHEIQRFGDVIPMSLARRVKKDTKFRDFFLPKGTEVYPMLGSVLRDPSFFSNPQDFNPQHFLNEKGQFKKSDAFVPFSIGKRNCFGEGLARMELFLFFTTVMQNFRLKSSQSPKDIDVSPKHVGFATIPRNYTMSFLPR

[1] = target: T2, recombinant human aromatase (CYP19) (Homo sapiens, UniProt P11511); test: Inhibition of recombinant human aromatase; type: biochemical
T2 sequence (P11511 1-503): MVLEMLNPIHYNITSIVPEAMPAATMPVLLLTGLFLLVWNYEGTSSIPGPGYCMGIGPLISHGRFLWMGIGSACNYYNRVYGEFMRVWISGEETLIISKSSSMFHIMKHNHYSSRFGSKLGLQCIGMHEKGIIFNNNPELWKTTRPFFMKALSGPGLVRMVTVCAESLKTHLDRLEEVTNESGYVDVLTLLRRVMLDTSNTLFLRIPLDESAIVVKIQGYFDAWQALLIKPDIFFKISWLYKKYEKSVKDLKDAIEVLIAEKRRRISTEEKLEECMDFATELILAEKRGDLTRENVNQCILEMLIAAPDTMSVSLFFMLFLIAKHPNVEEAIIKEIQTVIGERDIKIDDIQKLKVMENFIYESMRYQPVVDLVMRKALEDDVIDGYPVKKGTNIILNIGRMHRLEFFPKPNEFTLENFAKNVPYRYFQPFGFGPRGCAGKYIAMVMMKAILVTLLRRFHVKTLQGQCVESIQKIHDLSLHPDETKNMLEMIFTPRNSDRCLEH

recombinant human ER-α = target: T3, recombinant human ER-α (Homo sapiens, UniProt P03372); test: ER-α competitor binding assay, fluorescence polarization, displacement of ES2; conditions: at the concentration of 100,000 nM
T3 sequence (P03372 1-595): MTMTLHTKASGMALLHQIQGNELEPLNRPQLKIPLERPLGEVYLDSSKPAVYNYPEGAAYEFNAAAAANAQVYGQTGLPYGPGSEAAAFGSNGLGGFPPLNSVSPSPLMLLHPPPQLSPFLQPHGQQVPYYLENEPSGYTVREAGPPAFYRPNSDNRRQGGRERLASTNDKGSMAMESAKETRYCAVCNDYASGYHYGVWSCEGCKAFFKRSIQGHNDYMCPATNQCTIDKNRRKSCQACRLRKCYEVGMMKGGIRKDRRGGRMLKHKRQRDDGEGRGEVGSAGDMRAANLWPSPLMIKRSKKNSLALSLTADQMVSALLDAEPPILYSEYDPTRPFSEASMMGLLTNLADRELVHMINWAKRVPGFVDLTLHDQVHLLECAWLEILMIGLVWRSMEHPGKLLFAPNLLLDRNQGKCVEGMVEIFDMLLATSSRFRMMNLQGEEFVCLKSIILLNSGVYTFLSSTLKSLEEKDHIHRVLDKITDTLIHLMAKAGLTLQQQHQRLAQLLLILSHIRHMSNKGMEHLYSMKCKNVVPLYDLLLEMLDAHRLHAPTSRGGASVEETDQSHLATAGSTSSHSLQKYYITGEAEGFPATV

Recombinant CYP2D6 = Recombinant CYP2D6 (Homo sapiens, UniProt P10635); conditions: previously published; cited from earlier work
Chain of Recombinant CYP2D6 (P10635 whole entry): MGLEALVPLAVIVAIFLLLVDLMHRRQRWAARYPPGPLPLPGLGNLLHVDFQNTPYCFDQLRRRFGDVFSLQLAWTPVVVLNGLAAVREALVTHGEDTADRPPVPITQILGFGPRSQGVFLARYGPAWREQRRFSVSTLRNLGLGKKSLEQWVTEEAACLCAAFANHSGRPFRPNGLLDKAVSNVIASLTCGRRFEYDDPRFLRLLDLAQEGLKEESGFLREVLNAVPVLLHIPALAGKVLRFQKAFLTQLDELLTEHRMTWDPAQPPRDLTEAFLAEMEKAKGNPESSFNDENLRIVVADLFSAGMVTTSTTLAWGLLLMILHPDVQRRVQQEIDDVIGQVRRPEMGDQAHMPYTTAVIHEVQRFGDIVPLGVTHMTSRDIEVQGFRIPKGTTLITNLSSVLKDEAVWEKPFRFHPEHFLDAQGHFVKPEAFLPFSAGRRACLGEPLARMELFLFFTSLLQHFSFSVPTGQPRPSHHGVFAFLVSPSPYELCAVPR

Row | Structure (SMILES) | Percent ER competition, ER-α (recombinant human ER-α) [% competition] | other results
1 | CC/C(=C(/c1ccc(O)cc1)c1ccc(OCCN)cc1)c1ccc(O)cc1 [Compound 10, 4,4'-(1-(4-(2-Aminoethoxy)phenyl)but-1-ene-1,2-diyl)diphenol] |  | IC50 (Recombinant CYP2A6): 6.73 ± 0.66 µM; Potency against aromatase (CYP19) relative to norendoxifen ([1]; Ki 20.0 nM versus Ki […] nM): 4 fold; Selectivity toward CYP19 versus all other CYP P450 enzymes tested ([1]; other than CYP1A2, from Ki values): > 21 fold
2 | CC/C(=C(/c1ccccc1)c1ccc(OCCN)cc1)c1ccccc1 [Compound 18, 2-(4-(1,2-Diphenylbut-1-en-1-yl)phenoxy)ethan-1-amine] | 0 | 
3 | CC(C)/C(=C(/c1ccc(O)cc1)c1ccc(OCCN)cc1)c1ccccc1 [Compound 29d, 4-(1-(4-(2-Aminoethoxy)phenyl)-3-methyl-2-phenylbut-1-enyl)phenol] | 54 | 
4 | N#CC/C(=C(/c1ccc(O)cc1)c1ccc(OCCN)cc1)c1ccccc1 [Compound 40, 4-(4-(2-Aminoethoxy)phenyl)-4-(4-hydroxyphenyl)-3-phenylbut-3-enenitrile] | 48 | 
5 | NCCOc1ccc(/C(=C(\Cn2ccnc2)c2ccccc2)c2ccc(O)cc2)cc1 [Compound 41, 4-(1-(4-(2-Aminoethoxy)phenyl)-3-(1H-imidazol-1-yl)-2-phenylprop-1-en-1-yl)phenol] | 59 | 
6 | CC/C(=C(/c1ccc(O)cc1)c1ccc(OCCO)cc1)c1ccccc1 [Compound 48, 4-(1-(4-(2-Hydroxyethoxy)phenyl)-2-phenylbut-1-en-1-yl)phenol] | 62 | 
7 | CC/C(=C(/c1ccc(O)cc1)c1ccc(OCC(=O)O)cc1)c1ccccc1 [Compound 49, 2-(4-(1-(4-Hydroxyphenyl)-2-phenylbut-1-en-1-yl)phenoxy)acetic Acid] | 55 | 
8 | CC/C(=C(/c1ccc(O)cc1)c1ccc(OCCBr)cc1)c1ccccc1 [Compound 50, 4-(1-(4-(2-Bromoethoxy)phenyl)-2-phenylbut-1-en-1-yl)phenol] | 60 | 
9 | CC/C(=C(/c1ccc(O)cc1)c1ccc(OCCCl)cc1)c1ccccc1 [Compound 55a, 4-(1-(4-(2-Chloroethoxy)phenyl)-2-phenylbut-1-en-1-yl)phenol] | 62 | 
10 | CC/C(=C(/c1ccc(O)cc1)c1ccc(OCCN)cc1)c1ccccc1 [Norendoxifen] |  | Recombinant CYP2D6 IC50 (nM) (Recombinant CYP2D6): No inhibition; Recombinant CYP2D6 Ki (nM) (Recombinant CYP2D6): No inhibition
